The subject of this test is maximal electroshock (MES) induced seizures. As to the kind of experiment: Maximal electroshock (MES) test. In kind it is in vivo, mice. The note with it: 100 mg/kg i.p., mice; for responders at 100 mg/kg: Mus musculus, ip. The source says:
Male Kunming mice (23–28 g) were maintained under controlled conditions with ad libitum access to standard pellet diet and water. Test compounds were formulated immediately prior to administration in normal saline containing 0.5% Tween-80. Our experiment was authorized by the Institutional Animal Care and Use Committee of Shaanxi University of Chinese Medicine (animal ethics certificate number: SUCMDL20210309027).
The MES test carried out following the method of Swinyard. A 60 Hz current (50 mA; 0.25 s duration) was delivered via corneal electrodes using a YSD-4G electro convulsion meter (Zhenghua Instruments, Huaibei, China, SN: ZH0056232). […] Test compounds were suspended in an identical vehicle. Protection was defined as abolition of tonic hindlimb extension.
In general terms: Protection in the maximal electroshock model is a classic sign of anticonvulsant action.

The mark [1] stands for this setting: 0.5 h, read-out: MES model, protected mice/total mice, 0.5 h (converted).
[2] abbreviates: 1 h, read-out: MES model, protected mice/total mice, 1 h (converted).
[3] abbreviates: 2 h, read-out: MES model, protected mice/total mice, 2 h (converted).
The mark [4] stands for this setting: 3 h, read-out: MES model, protected mice/total mice, 3 h (converted).

From PMC12472621, “Excavating Precursors from Herb Pairs Polygala tenuifolia and Acori tatarinowii: Synthesis and Anticonvulsant Activity Evaluation of 3,4,5-Trimethoxycinnamic Acid (TMCA) Piperazine Amide Derivatives” (Pharmaceuticals, 2025) come the findings set out here.

Where two headings read alike, the source gives them in different places.

Consider `COc1cc(/C=C/C(=O)N2CCN(C(=O)CCC(=O)O)CC2)cc(OC)c1OC` [B1], for which the responders at 100 mg/kg runs as follows: under setting [1], 25%; under setting [2], 25%; under setting [3], 0%; under setting [4], 0%.
In the case of “(E)-3-(2,4,5-trimethoxyphenyl)allyl 4-oxo-4-(4-((E)-3-(3,4,5-trimethoxyphenyl)acryloyl)piperazin-1-yl)butanoate [B5]”, under “0.5 h”, the “MES model, protected mice/total mice, 0.5 h” value was 3/4. The “MES model, protected mice/total mice, 1 h” value (1 h) is recorded as 3/4. For the same compound, where the note is “2 h”, the “MES model, protected mice/total mice, 2 h” value is reported as 2/4. For the same compound, the “MES model, protected mice/total mice, 3 h” value (3 h) was 0/4.
With `COc1ccccc1N1CCN(C(=O)CCCN2CCN(C(=O)/C=C/c3cc(OC)c(OC)c(OC)c3)CC2)CC1` [A15, (E)-1-(4-(2-methoxyphenyl)piperazin-1-yl)-4-(4-(3-(3,4,5-trimethoxyphenyl)acryloyl)piperazin-1-yl)butan-1-one], the responders at 100 mg/kg under setting [1] is 75%, the responders at 100 mg/kg under setting [2] is 75%, the responders at 100 mg/kg under setting [3] was 25% and the responders at 100 mg/kg under setting [4] was 0%.
Take “(E)-3-(2,4,5-trimethoxyphenyl)allyl 4-oxo-4-(4-((E)-3-(3,4,5-trimethoxyphenyl)acryloyl)piperazin-1-yl)butanoate [B6]”: where the note is “0.5 h”, the “MES model, protected mice/total mice, 0.5 h” value is listed as 2/4. Further, the “MES model, protected mice/total mice, 1 h” value (1 h) is given as 1/4. The “MES model, protected mice/total mice, 2 h” value (2 h) is on record as 1/4. For the same compound, the “MES model, protected mice/total mice, 3 h” value (3 h) is 0/4.
Regarding `COc1cc(/C=C/C(=O)N2CCN(CCCC(=O)N3CCN(c4ncccn4)CC3)CC2)cc(OC)c1OC` [A16, (E)-1-(4-(pyrimidin-2-yl)piperazin-1-yl)-4-(4-(3-(3,4,5-trimethoxyphenyl)acryloyl)piperazin-1-yl)butan-1-one], the responders at 100 mg/kg is, setting by setting: under setting [1], 75%; under setting [2], 75%; under setting [3], 50%; under setting [4], 0%.
In the case of `C=CCc1ccc(OC(=O)CCC(=O)N2CCN(C(=O)/C=C/c3cc(OC)c(OC)c(OC)c3)CC2)c(OC)c1` [B2, 4-allyl-2-methoxyphenyl (E)-4-oxo-4-(4-(3-(3,4,5-trimethoxyphenyl)acryloyl)piperazin-1-yl)butanoate], the responders at 100 mg/kg under setting [1] is 75%, the responders at 100 mg/kg under setting [2] was 75%, the responders at 100 mg/kg under setting [3] is 25% and the responders at 100 mg/kg under setting [4] was 0%.
`COc1cc(/C=C/C(=O)N2CCN(C(=O)CCC(=O)N3CCN(c4cccc(Cl)c4)CC3)CC2)cc(OC)c1OC` [B13, (E)-1-(4-(3-chlorophenyl)piperazin-1-yl)-4-(4-(3-(3,4,5-trimethoxyphenyl)acryloyl)piperazin-1-yl)butane-1,4-dione]: the responders at 100 mg/kg is 50% under setting [1], 25% under setting [2], 0% under setting [3] and 0% under setting [4].
With `COc1cc(OC)c(OC)cc1/C=C/COC(=O)CCCN1CCN(C(=O)/C=C/c2cc(OC)c(OC)c(OC)c2)CC1` [A5, (E)-3-(2,4,5-trimethoxyphenyl)allyl 4-(4-((E)-3-(3,4,5-trimethoxyphenyl)acryloyl)piperazin-1-yl)butanoate], the responders at 100 mg/kg by setting is: under setting [1], 75%; under setting [2], 75%; under setting [3], 50%; under setting [4], 0%.
As for `COc1cc(/C=C/C(=O)N2CCN(C(=O)CCC(=O)N3CCC(c4noc5cc(F)ccc45)CC3)CC2)cc(OC)c1OC` [B17, (E)-1-(4-(6-fluorobenzo[d]isoxazol-3-yl)piperidin-1-yl)-4-(4-(3-(3,4,5-trimethoxyphenyl)acryloyl)piperazin-1-yl)butane-1,4-dione], the responders at 100 mg/kg runs as follows: under setting [1], 50%; under setting [2], 50%; under setting [3], 25%; under setting [4], 0%.
With `COc1cc(/C=C/C(=O)N2CCN(CCCC(=O)N3CCN(c4ccccc4)CC3)CC2)cc(OC)c1OC` [A11, (E)-1-(4-phenylpiperazin-1-yl)-4-(4-(3-(3,4,5-trimethoxyphenyl)acryloyl)piperazin-1-yl)butan-1-one], the responders at 100 mg/kg runs as follows: under setting [1], 25%; under setting [2], 25%; under setting [3], 25%; under setting [4], 0%.
With `COc1cc(/C=C/C(=O)N2CCN(C(=O)CCC(=O)N3CCN(c4ccccc4)CC3)CC2)cc(OC)c1OC` [B11, (E)-1-(4-phenylpiperazin-1-yl)-4-(4-(3-(3,4,5-trimethoxyphenyl)acryloyl)piperazin-1-yl)butane-1,4-dione], the responders at 100 mg/kg reads like this: under setting [1], 50%; under setting [2], 50%; under setting [3], 25%; under setting [4], 0%.
As for `COc1cc(/C=C/C(=O)N2CCN(CCCC(=O)N3CCN(c4cccc(Cl)c4)CC3)CC2)cc(OC)c1OC` [A13, (E)-1-(4-(3-chlorophenyl)piperazin-1-yl)-4-(4-(3-(3,4,5-trimethoxyphenyl)acryloyl)piperazin-1-yl)butan-1-one], the responders at 100 mg/kg reads like this: under setting [1], 25%; under setting [2], 25%; under setting [3], 0%; under setting [4], 0%.
Consider `C=CCc1ccccc1OC(=O)CCC(=O)N1CCN(C(=O)/C=C/c2cc(OC)c(OC)c(OC)c2)CC1` [B4, 2-allylphenyl (E)-4-oxo-4-(4-(3-(3,4,5-trimethoxyphenyl)acryloyl)piperazin-1-yl)butanoate], for which the responders at 100 mg/kg under setting [1] was 75%, the responders at 100 mg/kg under setting [2] is 50%, the responders at 100 mg/kg under setting [3] is 50% and the responders at 100 mg/kg under setting [4] is 0%.
Turning to `COc1cc(/C=C/C(=O)N2CCN(CCCC(=O)N3CCN(c4nsc5ccccc45)CC3)CC2)cc(OC)c1OC` [A10, (E)-1-(4-(benzo[d]isothiazol-3-yl)piperazin-1-yl)-4-(4-(3-(3,4,5-trimethoxyphenyl)acryloyl)piperazin-1-yl)butan-1-one], the responders at 100 mg/kg runs as follows: under setting [1], 75%; under setting [2], 25%; under setting [3], 25%; under setting [4], 0%.
`COc1cc(/C=C/C(=O)N2CCN(CCCC(=O)N3CCC(c4noc5cc(F)ccc45)CC3)CC2)cc(OC)c1OC` [A17, (E)-1-(4-(6-fluorobenzo[d]isoxazol-3-yl)piperidin-1-yl)-4-(4-(3-(3,4,5-trimethoxyphenyl)acryloyl)piperazin-1-yl)butan-1-one]: the responders at 100 mg/kg under setting [1] was 50%, the responders at 100 mg/kg under setting [2] was 50%, the responders at 100 mg/kg under setting [3] is 25% and the responders at 100 mg/kg under setting [4] was 0%.
In the case of `COc1cc(/C=C/C(=O)N2CCN(CCCC(=O)OCC=Cc3ccccc3)CC2)cc(OC)c1OC` [A6, cinnamyl 4-(4-((E)-3-(3,4,5-trimethoxyphenyl)acryloyl)piperazin-1-yl)butanoate], the responders at 100 mg/kg is, setting by setting: under setting [1], 50%; under setting [2], 50%; under setting [3], 25%; under setting [4], 0%.
On to `COc1cc(/C=C/C(=O)N2CCN(C(=O)CCC(=O)O[C@H]3C[C@H]4CC[C@]3(C)C4(C)C)CC2)cc(OC)c1OC` [B7, (1R,2S,4R)-1,7,7-trimethylbicyclo [2.2.1]heptan-2-yl 4-oxo-4-(4-((E)-3-(3,4,5-trimethoxyphenyl)acryloyl)piperazin-1-yl)butanoate], for which the responders at 100 mg/kg was 75% under setting [1], 50% under setting [2], 25% under setting [3] and 0% under setting [4].
The corresponding values for `COc1cc(/C=C/C(=O)N2CCN(C(=O)CCC(=O)N3CCN(c4ccc(C(F)(F)F)cc4)CC3)CC2)cc(OC)c1OC` [B14, (E)-1-(4-(4-(trifluoromethyl)phenyl)piperazin-1-yl)-4-(4-(3-(3,4,5-trimethoxyphenyl)acryloyl)piperazin-1-yl)butane-1,4-dione] are 75%, 75%, 50% and 0%.
The corresponding values for `C=CCc1ccc(OC(=O)CCCN2CCN(C(=O)/C=C/c3cc(OC)c(OC)c(OC)c3)CC2)c(OC)c1` [A2, 4-allyl-2-methoxyphenyl (E)-4-(4-(3-(3,4,5-trimethoxyphenyl)acryloyl)piperazin-1-yl)butanoate] are 50%, 50%, 25% and 0%.
`COc1cc(/C=C/C(=O)N2CCN(C(=O)CCC(=O)N3CCN(c4ncccn4)CC3)CC2)cc(OC)c1OC` [B16, (E)-1-(4-(pyrimidin-2-yl)piperazin-1-yl)-4-(4-(3-(3,4,5-trimethoxyphenyl)acryloyl)piperazin-1-yl)butane-1,4-dione]: the responders at 100 mg/kg is, setting by setting: under setting [1], 75%; under setting [2], 50%; under setting [3], 50%; under setting [4], 0%.
